Patent US20140128605A1, “CRYSTALS OF GLYCINE DERIVATIVE AND PHARMACEUTICAL USE THEREOF” (Toray Industries, Inc., priority 2011, published 2014)

How the values were obtained:
Format in all cases: physicochemical
[1] = Evaluation of solid-state stability (60° C., four weeks, air-tightly); conditions: for Purity [%] Initial value / Purity [%] After 4 weeks: HPLC; for Purity [%] Initial value: before storage; for Purity [%] After 4 weeks / Decomposition product increased by not less than 0.15% after 4 weeks / Crystal form after 4 weeks: stored air-tightly at 60° C. for four weeks; for Crystal form after 4 weeks: powder X-ray diffraction and TG-DTA
Description: The amorphous form, and the crystals of Form A, Form B, Form C, Form D and Form E (hydrate) of the subject compound were stored air-tightly at 60° C. for four weeks, and the purities thereof before and after the storage were measured by high performance liquid chromatography (hereinafter referred to as “HPLC”) under the following conditions. The powder X-ray diffraction measurement and TG-DTA were carried out to evaluate whether the crystal forms were changed or not due to the storage. Aqueous sodium dihydrogen phosphate solution in a concentration of 20 mmol/L (hereinafter referred to as “aqueous SDP solution”) used to prepare a mobile phase of HPLC was prepared by adding distilled water (3 L) to weighed sodium dihydrogen phosphate dihydrate (9.36 g) and stirring the resulting solution to dissolve the dihydrate. An analytical sample of HPLC was prepared by weighing and adding each crystal (1.75 mg) of the subject compound to a 10-mL measuring flask respectively; adding acetonitrile (2 mL) thereto to dissolve the crystal; and then adding aqueous SDP solution thereto to a total volume of 10 mL.
• Detection Wavelength: 210 nm • Column: YMC-Pack Pro C18 AS-303 • Mobile Phase A: aqueous SDP solution/acetonitrile=80:20 (v/v) • Mobile Phase B: acetonitrile/aqueous SDP solution=70:30 (v/v) • Composition of Mobile Phase B: 0 to 60 minutes: 0→100% • 60 to 65 minutes: 100%, • 65 to 66 minutes: 100→0%, • 66 to 75 minutes: 0% • Flow rate: 1.0 mL/min • Column Temperature: 40° C. • Amount of Injected Sample: 20 μL

[2] = Evaluation of moisture absorption (equilibrium moisture regain); conditions: for Weight increase: relative humidity increased from 5% to 95%, 25° C.
Description: • Sample Amount: 5 to 12 mg • Measuring Temperature: 25° C. • Equilibrium Weight/time: 0.01 wt %/5 minutes • Maximum Equilibration Time: 180 minutes • Measurement Range: 5% relative humidity-95% relative humidity-5% relative humidity • Measurement Interval: 5% relative humidity
To evaluate whether the crystal form changes or not, the powder X-ray diffraction measurement was carried out for each crystal of Form A, Form B, Form C, Form D and Form E (hydrate) obtained after the evaluation test of moisture absorption. Only for the Form A crystal, the measurement range (2θ) of the powder X-ray diffraction measurement was changed to 2 to 35°, and the measurement was carried out at 25° C., 90% relative humidity. A humidity generator (HUM-1A; manufactured by Rigaku) was used to control humidity.

[3] = Storage stability test (accelerated testing) of Form C crystal; conditions: 40° C., 75% relative humidity; for Purity [%] Initial value: HPLC, before storage, 6 months column
Description: The Form C crystals of the subject compound were stored under acceleration conditions (40° C., 75% relative humidity) air-tightly or under open conditions for six months, and the purities of the crystals before and after the storage were measured by HPLC under conditions below. The powder X-ray diffraction measurement and TG-DTA were carried out to evaluate whether the crystal form was changed or not due to storage.
Phosphate buffer in a concentration of 20 mmol/L (pH 3.9) (hereinafter referred to as “Buffer X”) used to prepare a mobile phase of HPLC was prepared by adding 20 mmol/L of aqueous phosphoric acid solution to 20 mmol/L of aqueous potassium dihydrogen phosphate solution. 20 mmol/L of the aqueous potassium dihydrogen phosphate solution was prepared by adding the weighed potassium dihydrogen phosphate (8.2 g) to distilled water (3 L), and stirring the resulting solution to dissolve the phosphate, and 20 mmol/L of the aqueous phosphoric acid solution was prepared by adding phosphoric acid (1.4 mL) to distilled water (1 L), and mixing the resulting solution under stirring.
Phosphate buffer in a concentration of 20 mmol/L (pH 7.0) (hereinafter referred to as “Buffer Y”) used to prepare an analytical sample of HPLC was prepared by adding 20 mmol/L of aqueous phosphoric acid solution to 20 mmol/L of aqueous dipotassium hydrogen phosphate solution. 20 mmol/L of aqueous dipotassium hydrogen phosphate solution was prepared by adding the weighed dipotassium hydrogen phosphate (3.5 g) to distilled water (1 L), and stirring the resulting solution.
Further, the analytical sample of HPLC was prepared by weighing and adding the Form C crystals of the subject compound (10 mg) to a 50-mL measuring flask, and adding a mixture of Buffer Y and acetonitrile at a ratio of 80:20 to a total amount of 50 mL.
• Detection Wavelength: 210 nm • Column: YMC-Pack Pro C18 • AS12S05-2546WT • Mobile Phase A: buffer X/acetonitrile=80:20 (v/v) • Mobile Phase B: acetonitrile/buffer X=70:30 (v/v) • Composition of Mobile Phase B: 0 to 80 minutes: 0→100% • 80 to 85 minutes: 100% • 85 to 86 minutes: 100→0% • 86 to 95 minutes: 0% • Flow Rate: 1.0 mL/min • Column Temperature: 40° C. • Amount of Injected Sample: 20 μL

[4] = Physical stability of crystal form in solvents; conditions: solvents (e.g., toluene, methanol, 2-propanol)
[5] = Crystal form after milling (powder X-ray diffraction, TG-DTA); conditions: pin milled and jet milled products

Purity [%] Initial value [1] [%]	Purity [%] After 4 weeks [1] [%]	Decomposition product increased by not less than 0.15% after 4 weeks [1]	Crystal form after 4 weeks [1]	Change in crystal form ([2]; powder X-ray diffraction after the moisture absorption test)	Weight increase [2] [%]	Crystal form after 6 months ([3]; air-tightly)	Decomposition product increased by not less than 0.15% after 6 months ([3]; air-tightly)	Purity [%] After 6 months ([3]; air-tightly) [%]	Crystal form after 6 months ([3]; open condition)	Decomposition product increased by not less than 0.15% after 6 months ([3]; open condition)	Purity [%] After 6 months ([3]; open condition) [%]	Purity [%] Initial value ([3]; air-tightly) [%]	Purity [%] Initial value ([3]; open condition) [%]	Transfer of crystal form in solvents [4]	Change in the crystal form due to milling [5]	Structure (SMILES)
95.8	92.0	8 different	Amorphous													CN(c1ccc(/C=C/C[C@H](NC(=O)c2c(Cl)cccc2Cl)C(=O)O)cc1)c1ncccn1 [Amorphous, (S,E)-2-(2,6-dichlorobenzamido)-5-[4-(methyl-pyrimidin-2-ylamino)phenyl]pent-4-enoic acid]
97.3	97.5	nothing	Form B	changed^2)	3.4											CN(c1ccc(/C=C/C[C@H](NC(=O)c2c(Cl)cccc2Cl)C(=O)O)cc1)c1ncccn1 [Form A, (S,E)-2-(2,6-dichlorobenzamido)-5-[4-(methyl-pyrimidin-2-ylamino)phenyl]pent-4-enoic acid]
99.8	99.8	nothing	Form B		1.9											CN(c1ccc(/C=C/C[C@H](NC(=O)c2c(Cl)cccc2Cl)C(=O)O)cc1)c1ncccn1 [Form B, (S,E)-2-(2,6-dichlorobenzamido)-5-[4-(methyl-pyrimidin-2-ylamino)phenyl]pent-4-enoic acid]
98.9	98.9	nothing	Form C			Form C	Nothing	99.5	Form C	Nothing	99.4	99.5	99.5	not transferred to the another form	no change in the crystal form	CN(c1ccc(/C=C/C[C@H](NC(=O)c2c(Cl)cccc2Cl)C(=O)O)cc1)c1ncccn1 [Form C, (S,E)-2-(2,6-dichlorobenzamido)-5-[4-(methyl-pyrimidin-2-ylamino)phenyl]pent-4-enoic acid]
98.0	98.0	nothing	Mixed crystals^2)		1.0											CN(c1ccc(/C=C/C[C@H](NC(=O)c2c(Cl)cccc2Cl)C(=O)O)cc1)c1ncccn1 [Form D, (S,E)-2-(2,6-dichlorobenzamido)-5-[4-(methyl-pyrimidin-2-ylamino)phenyl]pent-4-enoic acid]
96.6	96.9	nothing	Form E		0.4											CN(c1ccc(/C=C/C[C@H](NC(=O)c2c(Cl)cccc2Cl)C(=O)O)cc1)c1ncccn1 [Form E, (S,E)-2-(2,6-dichlorobenzamido)-5-[4-(methyl-pyrimidin-2-ylamino)phenyl]pent-4-enoic acid]
